{"source": "patent US20210009624A1", "about": "“[18F] FMAU LABELING FOR PET IMAGING OF CANCER PATIENTS” (University of Southern California, priority 2018, published 2021)", "key": {"[1]": {"test_system": "primary breast tumor as well as metastatic disease", "assay": "PET imaging of [18F]FMAU in breast cancer patients (Phase I)", "type": "in vivo, human", "conditions": "FIG. 3", "text": "(§1) In addition to animal models, we also studied the [^18F]FMAU obtained through our synthesis method using the labeling kit in patients (Phase I) with known breast and prostate cancer. […] In view of the promising clinical Phase I data of [^18F]FMAU, it is clear that FMAU is a promising candidate for PET imaging of tumor cell proliferation, and may ultimately complement the role of FLT or other cell proliferation markers currently under development."}, "[2]": {"assay": "Adverse reactions in Phase I patients with breast and prostate cancer", "type": "in vivo, human", "conditions": "all studied patients (Phase I, known breast and prostate cancer)", "text": "as §1"}, "[3]": {"assay": "Circulating metabolites in human blood after injection of [18F]FMAU", "type": "in vivo", "conditions": "human blood at 1 hour post-injection", "text": "as §1"}}}
{"molecule": "Cc1cn([C@@H]2O[C@H](CO)C(O)C2[18F])c(=O)[nH]c1=O", "note": "(stereo partly drawn) [[^18F]FMAU, 2′-deoxy-2′-[^18F]fluoro-5-methyl-1-beta-D-arabinofuranosyl-uracil]", "values": [{"measurement": "primary breast tumor as well as metastatic disease uptake of [18F]FMAU (PET imaging)", "setting": "[1]", "value": "excellent"}, {"measurement": "adverse reactions", "setting": "[2]", "value": "No adverse reactions were observed"}, {"measurement": "circulating metabolites in human blood", "setting": "[3]", "value": "No major circulating metabolites were identified"}]}
